This is an account of results in publication PMC7999199, “Novel Cationic Meso-Arylporphyrins and Their Antiviral Activity against HSV-1” (Pharmaceuticals, 2021).

The structures appear in SMILES notation.

This data set is described as follows: n-Octanol/PBS partition coefficient. The class given is physicochemical. The settings on record: 1-n-octanol/PBS, pH 7; read-out: LogP (LogPow, 1-n-octanol/water partition coefficient). On the procedure:
The normalized UV-vis spectra, as well as the fluorescence spectra in DMSO and ethanol, are shown in Figures S1 and S2 (Supplementary Information). Fluorescence quantum yields were measured as compared with 5,10,15,20-tetrakisphenylporphyrin (TPP) (ΦF = 0.11) and ZnTPP (ΦF = 0.033). For free-base compounds 3a,b fluorescence quantum yields were similar at ca. 0.13 in DMSO and ca. 0.14, respectively. Octanol-water distribution coefficients were calculated using 1-n-octanol and phosphate-buffered saline (PBS), according to the method described in [53]. […] As expected, compound 3a was more hydrophilic (LogPow = −4.86) than 3b (LogPow = −4.6). Such an effect can be associated with the increase in the number of methylene spacers in compound 3b.
The distribution coefficient was measured using 1-n-octanol and phosphate buffered saline (PBS), which were presaturated with each other by the described method. […] The absorption of each layer was measured spectrophotometrically in the region of the Soret band. Partition coefficients were calculated as the ratio between absorption in the Soret band of photosensitizers in organic and aqueous phase and the dilution factors for the organic and aqueous layers, according to the aforementioned method.

`O=C(CC[n+]1ccccc1)Oc1ccc(-c2c3nc(c(-c4ccc(OC(=O)CC[n+]5ccccc5)cc4)c4ccc([nH]4)c(-c4ccc(OC(=O)CC[n+]5ccccc5)cc4)c4nc(c(-c5ccc(OC(=O)CC[n+]6ccccc6)cc5)c5ccc2[nH]5)C=C4)C=C3)cc1` [3a]: the logP was -4.86.
